Consider one compound from patent US8283365B2, “Indole modulators of the alpha 7 nicotinic acetylcholine receptor” (Proximagen Limited, priority 2008, dated 2012).

The assay concerns the target T1, human α7 nAChR (Homo sapiens, UniProt P36544).
T1 construct: expressed in transfected cells; host or cells: GH4C1 (rat pituitary) cell line, stably transfected
Briefly: FLIPR cell-based calcium flux assay for PAM activity at α7 nAChR (nicotine-evoked response). Conditions: GH4C1 cell line stably transfected with human α7 nAChR. Here is the method: The PAM activity of the compounds of the invention at the α7 nAChR may be determined using the following cell-based calcium flux assay which uses a Fluorimetric Image Plate Reader (FLIPR) (see Schroeder et al.; J. Biomolecular Screening, 1(2), p 75-80, 1996).
GH4C1 cell line stably transfected with human α7 nAChR was suspended in a 384 well plate and incubated at 30° C. for 48 h in a 5% carbon dioxide atmosphere. The growth media was removed and the cells washed three times with a solution of Hanks' balanced salt solution (HBSS), 20 mM HEPES and 2.5 mM probenecid leaving 20 μl washing solution in each well. A loading solution (20 μl) containing HBSS, probenecid, 1-4 μM Fluo4 AM (a calcium indicator dye) and pluronic acid was added and the plate incubated for 45 min at 37° C. under an atmosphere free from carbon dioxide. The cells were washed three times leaving 30 μl in each well. The plate containing the cells and calcium indicator dye were then transferred to the FLIPR. The assay was initiated by collecting baseline datapoints at 10 second intervals followed by addition of the test compound in buffer solution (0.33% DMSO) and diluted to a final concentration of 10 μM and serial dilution of the wells, 1:2 or 1:3, gave a low concentration of <1 nM. Following a further 5-10 mins 10 μl of 50 μM nicotine was added and data collected for 2-3 mins. […]

The structures appear in SMILES notation.

T1 sequence (P36544 23-502): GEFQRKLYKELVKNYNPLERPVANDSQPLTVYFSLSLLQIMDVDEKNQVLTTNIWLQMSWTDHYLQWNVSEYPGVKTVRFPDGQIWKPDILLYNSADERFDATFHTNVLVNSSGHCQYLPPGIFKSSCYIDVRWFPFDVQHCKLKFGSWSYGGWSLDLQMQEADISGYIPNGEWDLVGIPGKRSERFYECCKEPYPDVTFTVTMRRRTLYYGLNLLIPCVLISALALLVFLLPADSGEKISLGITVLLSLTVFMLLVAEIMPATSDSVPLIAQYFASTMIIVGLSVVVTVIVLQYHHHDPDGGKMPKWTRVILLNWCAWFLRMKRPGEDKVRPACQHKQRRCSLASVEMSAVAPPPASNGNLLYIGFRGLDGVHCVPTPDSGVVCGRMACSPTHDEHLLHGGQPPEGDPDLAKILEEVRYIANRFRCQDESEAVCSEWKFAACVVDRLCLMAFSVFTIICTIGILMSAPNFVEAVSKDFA

As to `O=C(NCc1ccc2[nH]c(C(F)(F)F)cc2c1)c1ccc(C(F)(F)F)nc1` [Compound 1, N-[(2-Trifluoromethyl-1H-indol-5-yl)methyl]-6-(trifluoromethyl)-3-pyridinecarboxamide], the EC50 (potentiation of nicotine-evoked calcium flux) is less than 1 µM. The “maximum potentiation of the response area relative to nicotine control” value (relative to nicotine control) was “approximately 1200%”.
